Several values for one entry are separate records, joined by “and”; a condition that tells them apart may be missing. Equal entries are not always repeated.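 Tested at 5 concentrations; 48 h exposure; 96-well plates; endpoints linearly interpolated, else capped at highest concentration. GI50: concentration for 50% inhibition of growth. TGI: concentration producing complete growth inhibition.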
Key:
Assay in all cases: inhibition of tumour cell growth, NCI panel, 48 h
HT29 colon = test system: HT29 colon
HCC-2998 colon = test system: HCC-2998 colon
IGROV1 ovarian = test system: IGROV1 ovarian
M14 melanoma = test system: M14 melanoma
SK-MEL-5 melanoma = test system: SK-MEL-5 melanoma
SK-MEL-28 melanoma = test system: SK-MEL-28 melanoma
NCI-H460 lung = test system: NCI-H460 lung
SNB-19 CNS = test system: SNB-19 CNS
KM12 colon = test system: KM12 colon
HOP-62 NSCLC = test system: HOP-62 NSCLC

Row | SMILES | GI50 (HT29 colon) | TGI (HT29 colon) | GI50 (HCC-2998 colon) | TGI (HCC-2998 colon) | GI50 (IGROV1 ovarian) | TGI (IGROV1 ovarian) | GI50 (M14 melanoma) | TGI (M14 melanoma) | GI50 (SK-MEL-5 melanoma) | TGI (SK-MEL-5 melanoma) | GI50 (SK-MEL-28 melanoma) | TGI (SK-MEL-28 melanoma) | GI50 (NCI-H460 lung) | TGI (NCI-H460 lung) | GI50 (SNB-19 CNS) | TGI (SNB-19 CNS) | GI50 (KM12 colon) | TGI (KM12 colon) | TGI (HOP-62 NSCLC) | GI50 (HOP-62 NSCLC)
1 | COc1cc(-c2nn(-c3cccc(NC(=O)c4cccc(C(F)(F)F)c4)c3)cc2-c2ccncc2)ccc1Cl | 1.39 µM | 20.1 µM | 2.24 µM | 17.6 µM | 1.83 µM | > 50 µM | 1.63 µM | > 50 µM | 0.978 µM | 2.47 µM | 2.49 µM | > 50 µM | 1.45 µM | 9.27 µM | 2.46 µM | > 50 µM | 1.66 µM | > 50 µM |  | 
2 | Nc1nc(N)c(-c2ccccc2)c(C(=O)Nc2nccs2)n1 |  | > 100 µM |  | > 100 µM |  | > 100 µM |  | > 100 µM |  | > 100 µM |  | > 100 µM |  | > 100 µM |  | > 100 µM |  | > 100 µM | > 100 µM | 
3 | O=C1COc2c(CCNCCN(C(=O)CCNCCc3ccc(Cl)c(Cl)c3)C3CCCCC3)ccc(O)c2N1 | 16.7 µM | 33.8 µM | 18.7 µM | 35.1 µM | 15 µM | 30.1 µM | 16.6 µM | 31.8 µM | 15.6 µM | 29.4 µM | 14.8 µM | 29.3 µM | 16.5 µM | 31.1 µM | 15 µM | 31 µM | 19 µM | 35.5 µM | 32.7 µM | 15.3 µM
4 | COc1cc([C@H]2c3cc(O)c(OC)cc3C[C@]3(O)[C@@H]2CO[C@@H]3O)ccc1O |  | > 100 µM |  | > 100 µM |  | > 100 µM |  | > 100 µM |  | > 100 µM |  | > 100 µM |  | > 100 µM |  | > 100 µM |  | > 100 µM | > 100 µM | 
5 | O=C(O)C12C3C4C1C1C2C3C41I (centres undefined) |  | > 100 µM |  | > 100 µM |  | > 100 µM |  | > 100 µM |  | > 100 µM |  | > 100 µM |  | > 100 µM |  | > 100 µM |  | > 100 µM | > 100 µM | 
6 | COC(=O)C(NC(=O)c1ccccc1)c1ccc(OC)c(I)c1 (centres undefined) | 49 µM | > 100 µM | 54.5 µM | > 100 µM | 53.2 µM | > 100 µM | 52.3 µM | > 100 µM | 44.2 µM | > 100 µM | 76.4 µM | > 100 µM | 67.6 µM | > 100 µM | > 100 µM | > 100 µM | > 100 µM | > 100 µM | > 100 µM | > 100 µM
7 | CS(=O)(=O)Nc1ccc(Nc2c3ccccc3nc3cc(Cl)ccc23)cc1 | 2.57 µM | 14.1 µM | 7.57 µM | 22.9 µM | 1.62 µM | 19 µM | 0.812 µM | 15.1 µM | 1.13 µM | 2.62 µM | 3.62 µM | 19.2 µM | 0.0962 µM | 11 µM | 1.51 µM | 17.5 µM | 3.81 µM | 18.5 µM | 18 µM | 0.958 µM
8 | Oc1ccc(CCNc2nc3ccccc3c3[nH]c4ccccc4c23)cc1 |  |  | 1.56 µM | 3.02 µM |  |  | 1.73 µM | 3.26 µM | 1.75 µM | 3.15 µM | 1.61 µM | 2.98 µM |  |  | 1.83 µM | 5.3 µM | 1.2 µM | 2.98 µM | 3.35 µM | 1.63 µM
9 | CCCNc1ncnc2c1cnn2C |  | > 100 µM |  | > 100 µM |  | > 100 µM |  | > 100 µM |  | > 100 µM |  | > 100 µM |  | > 100 µM |  | > 100 µM |  | > 100 µM | > 100 µM | 
10 | COc1cc2nccc(Oc3ccc(NC(=O)C4(C(=O)Nc5ccc(F)cc5)CC4)cc3)c2cc1OC | 7.71 µM and 2.74 µM | > 10 µM and 20.4 µM | > 10 µM and 6.29 µM | > 100 µM | 4.51 µM and 2.59 µM | > 31 µM | > 10 µM and 2.9 µM | > 10 µM and 18.3 µM | > 10 µM and 4.66 µM | > 100 µM | > 10 µM and 3.74 µM | > 79 µM | > 10 µM and 3.27 µM | > 94.6 µM | > 10 µM and 7.69 µM | > 100 µM | 0.333 µM and 0.0482 µM | > 100 µM | > 45.3 µM | > 10 µM and 5.6 µM
11 | N#Cc1c(N)nc(N2CCOCC2)c(C#N)c1-c1ccc(Cl)cc1Cl | 16.4 µM | 39.3 µM | 13.3 µM | 28.2 µM | 6.64 µM | 23.6 µM | 18.3 µM | 42 µM | 14.7 µM | 29.2 µM | 18.4 µM | 53.1 µM | 9.38 µM | 25.3 µM | 15.9 µM | 60.9 µM |  |  | 91.6 µM | 28 µM
12 | COC(=O)C1=C(C)N(NC(=O)Nc2ccccc2)C2(N)N(NC(=O)Nc3ccccc3)C(C)=C(C(=O)OC)C12C(=O)OC (centres undefined) |  | > 100 µM |  | > 100 µM |  | 55.5 µM |  | > 100 µM |  |  |  | > 100 µM |  | > 100 µM |  |  |  |  |  | 
13 | CCOC(=O)/C(=C/c1ccc[nH]1)P(=O)(OCC)OCC |  | > 100 µM |  | > 100 µM |  |  |  | > 100 µM |  | > 100 µM |  | > 100 µM |  | > 100 µM |  | > 100 µM |  | > 100 µM | > 100 µM | 
14 | O=c1cccccc1[O-].O=c1cccccc1[O-].O=c1cccccc1[O-].[Dy+3] |  | > 100 µM |  | > 100 µM |  | > 100 µM |  | > 100 µM |  | 72.3 µM |  | > 100 µM |  | > 100 µM |  | > 100 µM |  | > 100 µM | 99.9 µM | 33 µM
15 | CCc1c[nH]c2ncnc(N3CC[C@](N)(CNC(=O)c4ccc(F)cc4F)C3)c12 | 3.1 µM | > 100 µM | 11.5 µM | > 100 µM | 0.207 µM | 6.67 µM | 15.6 µM | > 100 µM | 15.8 µM | > 52.5 µM | 7.46 µM | > 100 µM | 1.78 µM | > 100 µM | 2.04 µM | > 100 µM | 1.25 µM | > 100 µM | > 100 µM | 12.8 µM
16 | COc1cc2c(cc1OCCCN1CCN(CCCn3c4ccccc4c4ccccc43)CC1)N=C[C@@H]1CCCN1C2=O | 0.0342 µM | 0.289 µM | 0.12 µM | 0.37 µM |  |  | 0.211 µM | 0.656 µM | 0.202 µM | 0.472 µM | 0.0516 µM | 0.151 µM | 0.23 µM | 0.916 µM | 0.274 µM | 1.17 µM | 0.157 µM | 0.578 µM | 2.46 µM | 0.242 µM

— PubChem BioAssay (NCI)
